The values below come from patent EP4230622A1, “NERVE DAMAGE PREVENTING AND NERVE PROTECTING COMPOUNDS, PREPARATION METHOD THEREOF, PHARMACEUTICAL COMPOSITION THEREOF, AND THEIR USE” (Genhealth Pharma Co., Ltd., priority 2022, dated 2023).

In experiment [1] the test system is male Sprague Dawley rat (SD rat). As to the kind of experiment: Evaluation of the effect of preventing nerve damage: transient focal MCAO/R model, infarct volume by TTC staining. The format is in vivo. To be noted: 50 mg/kg intraperitoneal injection once 10 minutes before, 1 hour ischemia, 24 hours blood reperfusion, sum of seven brain slices, 5 SD rats. The method, then: The specific solvent was made of dimethyl sulfoxide (DMSO), cremophor EL (CrEL) and water, with the relative volume ratio of 10:20:70, respectively. Besides the foresaid experimental groups, only pure solvent used was treated as vehicle group, and a sham group, which was not administrated with any compound or solvent or with nylon monofilament to cause obstruction and ischemia, was also included.
In this test example, transient focal Middle Cerebral Artery Occlusion/ Reperfusion model (MCAO/R model) was adopted to simulate ischemic stroke for evaluating the subsequent nerve damage. Specifically, male Sprague Dawley rat (SD rat) was adopted and anaesthetized with 2% isoflurane, and then the right common carotid artery, external carotid artery and internal carotid artery were distinguished among them from the neck.
Next, a nylon monofilament with length of 22 millimeters (mm), size number of 4/0 and capped with polysiloxane was inserted into the external carotid artery and along with the […] of Willis to induce obstruction and ischemia in the middle cerebral artery. After causing obstruction and ischemia for 1 hour, the nylon monofilament was removed to allow the blood recirculated to the brain, in other words, to undergo blood reperfusion.
After blood reperfusion for 24 hours, the rat was sacrificed and the brain thereof was placed into a cooled 0.95% saline. Then, 1 mm part of the brain tip was excised, and the rest of the brain was cut in coronal section to obtain seven slices of brain tissue with each thickness of 2 mm. Next, those sliced brain tissues were infiltrated with 1% 2,3,5-triphenyltetrazolium chloride (TTC) for 30-minute at room temperature (about 25°C to 27°C). Afterward, the sliced brain tissues were […] with a 4% […] solution, and then MacroPATH Digital Imaging System was used to record the images and the obtained images were analyzed by ImageJ 1.52a to count the infarct volume percent, which could represent the degree of nerve damage. The foresaid infarct volume percent was obtained by adding the values acquired by multiplying the proportion of infarct area of each sliced brain tissue with their thickness, and the proportion of infarct area was calculated by the equation: (B-A)/B×100%; wherein, "A" represented the undamaged area in the damaged cerebral hemisphere on the right side, and "B" represented the total area of the undamaged cerebral hemisphere on the left side.
Here, 10 minutes before processing the foresaid MCAO/R model, the rats were administrated with the test samples of Examples 1 to 15 by intraperitoneal injection for one time. The administration amount was 50 milligrams per kilogram (mg/kg) or 5 ml/kg. The actual applied amount was depended on the weight of the rates. The treatment for the vehicle group was the same as that of the experimental group except only solvent was used.
The results of TTC staining of the seven sliced brain tissues of the groups of Examples 1 to 15, the vehicle group and the sham group were shown in FIG. 2. 5 SD rats were used for each experimental groups of Examples 1 to 15 and the vehicle group, while only 3 SD rats were used for the sham group. Table 2: The total infarct volume percent of Examples 1 to 15, the vehicle group, and the sham group.

The test system is the same in experiment [2]. In words: Neurobehavioral evaluation (Bederson classification) after MCAO/R. As to conditions: Bederson grade 0 to 4, 50 mg/kg intraperitoneal before MCAO/R.

On to `CCCCc1c(C)c(OC)c2c(c1OC)OCO2` [Example 2], for which the “Total infarct volume percent (%)” value in experiment [1] amounted to 30.75%.

For `COc1cc(C(=O)N[C@@H](C)C(=O)O)c(OC)c2c1OCO2` [Example 11], in experiment [1], the “Total infarct volume percent (%)” value is 15.93%. In experiment [2], the “Grade, Time point of 0.5-hour after blood reperfusion” value (“Grade, Time point of 0.5-hour” for short) was determined as 2.80 and the “Grade, Time point of 1.5-hour after blood reperfusion” value (“Grade, Time point of 1.5-hour” for short) came out at 2.00. The “Grade, Time point of 24-hour after blood reperfusion” value (“Grade, Time point of 24-hour” for short) in experiment [2] (50 mg/kg) was determined as 1.60.

Turning to `CCOC(=O)c1ccc(NC(=O)c2cc(OC)c3c(c2OC)OCO3)cc1` [Example 15], in experiment [1], the “Total infarct volume percent (%)” value stood at 17.76%. Further, in experiment [2], the “Grade, Time point of 0.5-hour” value is listed as 2.80; the “Grade, Time point of 1.5-hour” value was 2.60; the “Grade, Time point of 24-hour” value is 2.00.

For `COc1cc(C(=O)NCCC(=O)O)c(OC)c2c1OCO2` [Example 10], the “Total infarct volume percent (%)” value in experiment [1] is recorded as 21.76%. Moreover, in experiment [2], the “Grade, Time point of 0.5-hour” value came to 2.60; the “Grade, Time point of 1.5-hour” value worked out at 2.40; the “Grade, Time point of 24-hour” value stood at 2.20.

For `COc1cc(C(=O)NCCc2ccc(O)c(O)c2)c(OC)c2c1OCO2` [Example 8], the “Total infarct volume percent (%)” value in experiment [1] is recorded as 22.39%. In experiment [2], the “Grade, Time point of 0.5-hour” value was determined as 2.40; the “Grade, Time point of 1.5-hour” value is 2.60; the “Grade, Time point of 24-hour” value was 2.00.

For the molecule `COc1cc(C(=O)Nc2c(C)n(C)n(-c3ccccc3)c2=O)c(OC)c2c1OCO2` [Example 13], the “Total infarct volume percent (%)” value in experiment [1] is recorded as 32.53%.

For `COc1cc(C(=O)Nc2ccc(O)cc2)c(OC)c2c1OCO2` [Example 9], the “Total infarct volume percent (%)” value in experiment [1] is listed as 14.52%. In addition, in experiment [2], the “Grade, Time point of 0.5-hour” value came out at 2.80 and the “Grade, Time point of 1.5-hour” value worked out at 2.40. Further, the “Grade, Time point of 24-hour” value in experiment [2] (50 mg/kg) is on record as 1.40.

Turning to `COc1cc(CNC(C)=O)c(OC)c2c1OCO2` [Example 5], the “Total infarct volume percent (%)” value in experiment [1] came out at 20.2%. Besides, in experiment [2], the “Grade, Time point of 0.5-hour” value is listed as 2.40; the “Grade, Time point of 1.5-hour” value amounted to 2.40; the “Grade, Time point of 24-hour” value came to 2.40.

On to `COc1cc(C(=O)NCCCC(=O)O)c(OC)c2c1OCO2` [Example 7], for which, in experiment [1], the “Total infarct volume percent (%)” value is 15.17%. For the same molecule, in experiment [2], the “Grade, Time point of 0.5-hour” value worked out at 2.60 and the “Grade, Time point of 1.5-hour” value was found to be 2.40. For the same molecule, the “Grade, Time point of 24-hour” value in experiment [2] (50 mg/kg) turned out to be 1.60.

`COc1cc(C(=O)Nc2sc(C)cc2C#N)c(OC)c2c1OCO2` [Example 14]: the “Total infarct volume percent (%)” value in experiment [1] was determined as 34.77%.

Regarding `COc1cc(C(=O)OCc2ccccc2)c(OC)c2c1OCO2` [Example 12], the “Total infarct volume percent (%)” value in experiment [1] is on record as 35.67%.

Regarding `COc1ccc(C[C@@H](C)NC(=O)c2cc(OC)c3c(c2OC)OCO3)cc1S(N)(=O)=O` [Example 6], the “Total infarct volume percent (%)” value in experiment [1] was found to be 19.67%. In addition, in experiment [2], the “Grade, Time point of 0.5-hour” value came out at 2.60; the “Grade, Time point of 1.5-hour” value was found to be 2.40; the “Grade, Time point of 24-hour” value was 2.20.
